Measurements published in PubChem BioAssay (NCI).
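Assay format: 96-well plates, 48-hour exposure. The concentration for 50% growth inhibition is given as GI50. TGI marks complete inhibition of growth.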

How the values were obtained:
Test in all cases: NCI tumour cell line growth inhibition, 48 h
TK-10 renal = system: TK-10 renal
UACC-257 melanoma = system: UACC-257 melanoma
NCI-H226 lung = system: NCI-H226 lung
UO-31 renal = system: UO-31 renal
SW-620 colon = system: SW-620 colon
SNB-75 CNS = system: SNB-75 CNS
SK-MEL-5 melanoma = system: SK-MEL-5 melanoma
IGROV1 ovarian = system: IGROV1 ovarian
OVCAR-3 ovarian = system: OVCAR-3 ovarian
U251 CNS = system: U251 CNS
SF-539 CNS = system: SF-539 CNS
A498 renal = system: A498 renal
OVCAR-8 ovarian = system: OVCAR-8 ovarian
MDA-MB-468 breast = system: MDA-MB-468 breast
ACHN renal = system: ACHN renal
SK-MEL-28 melanoma = system: SK-MEL-28 melanoma
HT29 colon = system: HT29 colon
HCT-116 colon = system: HCT-116 colon
HOP-92 NSCLC = system: HOP-92 NSCLC
NCI-H23 lung = system: NCI-H23 lung
MALME-3M melanoma = system: MALME-3M melanoma
DU-145 prostate = system: DU-145 prostate
HS 578T breast = system: HS 578T breast
SF-295 CNS = system: SF-295 CNS
EKVX NSCLC = system: EKVX NSCLC
BT-549 breast = system: BT-549 breast
HCC-2998 colon = system: HCC-2998 colon
COLO 205 colon = system: COLO 205 colon
M14 melanoma = system: M14 melanoma
T-47D breast = system: T-47D breast
HOP-62 NSCLC = system: HOP-62 NSCLC
786-0 renal = system: 786-0 renal
CCRF-CEM leukemia = system: CCRF-CEM leukemia
UACC-62 melanoma = system: UACC-62 melanoma
SK-OV-3 ovarian = system: SK-OV-3 ovarian
RXF 393 renal = system: RXF 393 renal
SN12C renal = system: SN12C renal
MDA-MB-435 = system: MDA-MB-435
A549 NSCLC = system: A549 NSCLC
HCT-15 colon = system: HCT-15 colon
NCI-H522 lung = system: NCI-H522 lung
OVCAR-4 ovarian = system: OVCAR-4 ovarian
OVCAR-5 ovarian = system: OVCAR-5 ovarian
MCF7 breast = system: MCF7 breast
HL-60(TB) leukemia = system: HL-60(TB) leukemia
LOX IMVI melanoma = system: LOX IMVI melanoma
SF-268 CNS = system: SF-268 CNS
NCI-H460 lung = system: NCI-H460 lung
K-562 leukemia = system: K-562 leukemia
SNB-19 CNS = system: SNB-19 CNS
NCI/ADR-RES ovarian = system: NCI/ADR-RES ovarian
PC-3 prostate = system: PC-3 prostate
KM12 colon = system: KM12 colon
MOLT-4 leukemia = system: MOLT-4 leukemia
CAKI-1 renal = system: CAKI-1 renal
SR leukemia = system: SR leukemia
SK-MEL-2 melanoma = system: SK-MEL-2 melanoma
RPMI-8226 leukemia = system: RPMI-8226 leukemia
MDA-MB-231 breast = system: MDA-MB-231 breast

## COc1cc2c3c(n(CCCn4ccnc4)c(=O)c2cc1OC)-c1nc2c(cc1C3=O)OCO2
TK-10 renal
  GI50: > 100 µM
  TGI: > 100 µM
UACC-257 melanoma
  TGI: > 100 µM
NCI-H226 lung
  GI50: 0.124 µM
  TGI: > 100 µM
UO-31 renal
  GI50: 0.197 µM
  TGI: > 100 µM
SW-620 colon
  GI50: 0.207 µM
  TGI: > 100 µM
SNB-75 CNS
  GI50: 0.03 µM
  TGI: > 100 µM
SK-MEL-5 melanoma
  GI50: 0.07 µM
  TGI: 4.63 µM
IGROV1 ovarian
  GI50: > 52 µM
  TGI: > 100 µM
OVCAR-3 ovarian
  GI50: 38.5 µM
  TGI: > 100 µM
U251 CNS
  GI50: 0.0621 µM
  TGI: > 100 µM
SF-539 CNS
  GI50: 0.0363 µM
  TGI: 0.525 µM
A498 renal
  GI50: > 100 µM
  TGI: > 100 µM
OVCAR-8 ovarian
  GI50: 0.803 µM
  TGI: > 100 µM
MDA-MB-468 breast
  GI50: 0.028 µM
  TGI: 0.115 µM
ACHN renal
  GI50: 0.0389 µM
SK-MEL-28 melanoma
  GI50: > 100 µM
  TGI: > 100 µM
HT29 colon
  GI50: 0.637 µM
  TGI: > 100 µM
HCT-116 colon
  GI50: 0.169 µM
  TGI: > 100 µM
HOP-92 NSCLC
  GI50: > 47.1 µM
  TGI: > 100 µM
NCI-H23 lung
  GI50: 0.0442 µM
  TGI: 11.3 µM
MALME-3M melanoma
  GI50: 13.1 µM
  TGI: > 100 µM
DU-145 prostate
  GI50: 0.0616 µM
  TGI: > 100 µM
HS 578T breast
  GI50: > 100 µM
  TGI: > 100 µM
SF-295 CNS
  GI50: 0.0351 µM
  TGI: 12.8 µM
EKVX NSCLC
  GI50: > 66.4 µM
  TGI: > 100 µM
BT-549 breast
  GI50: 0.356 µM
  TGI: 26.3 µM
HCC-2998 colon
  GI50: 19.4 µM
  TGI: > 100 µM
COLO 205 colon
  GI50: 12.6 µM
  TGI: > 100 µM
M14 melanoma
  GI50: 0.0554 µM
  TGI: > 69.3 µM
T-47D breast
  GI50: 0.0376 µM
  TGI: > 100 µM
HOP-62 NSCLC
  GI50: 0.0339 µM
  TGI: > 100 µM
786-0 renal
  GI50: 0.105 µM
CCRF-CEM leukemia
  GI50: 0.028 µM
UACC-62 melanoma
  GI50: 0.0359 µM
  TGI: > 100 µM
SK-OV-3 ovarian
  GI50: 0.0459 µM
  TGI: > 100 µM
RXF 393 renal
  GI50: 0.335 µM
  TGI: > 100 µM
SN12C renal
  GI50: 0.134 µM
  TGI: > 100 µM
MDA-MB-435
  GI50: 4.7 µM
  TGI: > 100 µM
A549 NSCLC
  GI50: 3.31 µM
  TGI: > 100 µM
HCT-15 colon
  GI50: 13.1 µM
  TGI: > 100 µM
NCI-H522 lung
  GI50: 1.07 µM
  TGI: 37.6 µM
OVCAR-4 ovarian
  GI50: > 100 µM
  TGI: > 100 µM
OVCAR-5 ovarian
  GI50: > 36.7 µM
  TGI: > 100 µM
MCF7 breast
  GI50: 0.0247 µM
  TGI: 16.3 µM
HL-60(TB) leukemia
  GI50: 0.0485 µM
  TGI: > 100 µM
LOX IMVI melanoma
  GI50: 0.0448 µM
  TGI: 5.83 µM
SF-268 CNS
  GI50: 0.0769 µM
  TGI: > 100 µM
NCI-H460 lung
  GI50: 0.0325 µM
  TGI: > 36.4 µM
K-562 leukemia
  GI50: 0.0742 µM
  TGI: > 100 µM
SNB-19 CNS
  GI50: 0.0685 µM
  TGI: > 100 µM
NCI/ADR-RES ovarian
  GI50: > 100 µM
  TGI: > 100 µM
PC-3 prostate
  GI50: 32.2 µM
  TGI: > 100 µM
KM12 colon
  GI50: > 100 µM
  TGI: > 100 µM
MOLT-4 leukemia
  GI50: 0.0356 µM
  TGI: > 100 µM
CAKI-1 renal
  GI50: 0.04 µM
  TGI: > 100 µM
SR leukemia
  GI50: 0.0274 µM
  TGI: 24.5 µM
SK-MEL-2 melanoma
  GI50: > 100 µM
  TGI: > 100 µM
RPMI-8226 leukemia
  GI50: 0.852 µM
  TGI: > 100 µM
MDA-MB-231 breast
  GI50: 45.1 µM
  TGI: > 100 µM
